Here are results for 23 compounds from ChEMBL document CHEMBL1157844, “QSAR study of flavonoids and biflavonoids as influenza H1N1 virus neuraminidase inhibitors” (Eur J Med Chem, 2010).

Structures are written as SMILES.

The target in assay [1] is Neuraminidase (Influenza A virus (A/Puerto Rico/8/1934(H1N1))) (UniProt P03468). Kind of assay: (§1) Inhibition of Influenza A PR/8/34 H1N1 virus neuraminidase activity by MUN-ANA substrate based fluorimetric assay. More on the design: unit not given here.
Assay [2] has as its target Neuraminidase (Influenza A virus (A/Puerto Rico/8/1934(H1N1)), UniProt P03468). The description is as §1.

Chain of Neuraminidase (Influenza A virus (A/Puerto Rico/8/1934(H1N1))) (P03468 whole entry): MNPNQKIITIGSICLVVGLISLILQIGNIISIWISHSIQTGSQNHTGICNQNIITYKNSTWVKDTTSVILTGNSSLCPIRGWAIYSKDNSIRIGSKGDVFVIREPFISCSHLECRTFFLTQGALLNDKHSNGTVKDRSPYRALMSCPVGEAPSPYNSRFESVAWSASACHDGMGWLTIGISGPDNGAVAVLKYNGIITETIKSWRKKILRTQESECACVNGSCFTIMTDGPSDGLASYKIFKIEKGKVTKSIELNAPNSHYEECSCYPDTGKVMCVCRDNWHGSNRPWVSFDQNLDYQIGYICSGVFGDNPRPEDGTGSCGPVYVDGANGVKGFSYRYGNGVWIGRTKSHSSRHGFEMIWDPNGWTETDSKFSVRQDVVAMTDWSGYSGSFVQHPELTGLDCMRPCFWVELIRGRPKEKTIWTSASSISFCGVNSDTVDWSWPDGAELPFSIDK
Chain of Neuraminidase (Influenza A virus (A/Puerto Rico/8/1934(H1N1)), UniProt P03468) (P03468 whole entry): as above

The term IC50 denotes the concentration at which inhibition is half-maximal. `COc1ccc(-c2cc(=O)c3c(O)c(Oc4ccc(-c5cc(=O)c6c(O)cc(OC)cc6o5)cc4)c(O[C@]4(C(=O)O)C[C@H](O)[C@@H](NC(C)=O)[C@H]([C@@H](O)[C@@H](O)CO)O4)cc3o2)cc1` registered a logIC50 in assay [1] of 1.28. Further, in assay [2], the IC50 was 22.3 µM.
Taken in the same sequence, the figures for `O=C1/C(=C\c2ccccc2)Oc2cc(O)ccc21` were 1.23 and 72 µM.
On the same counts, the results for `O=C(Oc1cc(O)c2c(c1)OC(c1cc(O)c(O)c(O)c1)CC2)c1cc(O)c(O)c(O)c1` (stereo unspecified) are 1.2 and 35.5 µM.
On the same counts, the results for `O=C1/C(=C\c2ccc(O)cc2)Oc2cc(O)ccc21` are 0.748 and 22 µM.
`O=c1c(O[C@H]2O[C@@H](CO)[C@H](O)[C@@H](O)[C@@H]2O[C@@H]2OC[C@@H](O)[C@H](O)[C@H]2O)c(-c2ccc(O)cc2)oc2cc(O)cc(O)c12` (stereo in doubt) yielded a logIC50 in assay [1] of 1.39. The same compound had an IC50 in assay [2] of 42.2 µM.
In assay [1], `COc1c(O)cc(O)c2c(=O)cc(-c3ccc(O)cc3)oc12` [4'-HYDROXYWOGONIN] registered a logIC50 of 1.12. Also, in assay [2], 43.8 µM corresponded to half-maximal inhibition (IC50).
Taken in the same sequence, the figures for `O=c1cc(-c2ccc(O)cc2)oc2cc(O)cc(O)c12` [APIGENIN] were 0.932 and 31.6 µM.
The compound `O=c1cc(-c2ccccc2)oc2cc(O)cc(O)c12` [CHRYSIN] came in with a logIC50 in assay [1] of 1.06. Half-maximal inhibition in assay [2] (IC50) required 45.7 µM.
On the same counts, the results for `O=c1c(-c2ccc(O)cc2)coc2cc(O)ccc12` [DAIDZEIN] are 0.975 and 37.1 µM.
Taken in the same sequence, the figures for `O=c1cc(-c2ccc(O)c(O)c2)oc2cc(O[C@@H]3O[C@H](CO)[C@@H](O)[C@H](O)[C@H]3O)cc(O)c12` [GALUTEOLIN] were 1.33 and 47.4 µM.
Taken in the same sequence, the figures for `O=c1c(-c2ccc(O)cc2)coc2cc(O)cc(O)c12` [GENISTEIN] were 1.32 and 77.1 µM.
For the compound `COc1cc(O)c2c(=O)cc(-c3ccc(OC)c(-c4c(O)cc(O)c5c(=O)cc(-c6ccc(O)cc6)oc45)c3)oc2c1` [GINKGETIN], in assay [1], the logIC50 was found to be 1.74. In assay [2], this compound showed an IC50 of 97.1 µM.
The compound `O=c1cc(-c2ccc(Oc3c(O)cc4oc(-c5ccc(O)cc5)cc(=O)c4c3O)cc2)oc2cc(O)cc(O)c12` [HINOKIFLAVONE] gave a logIC50 in assay [1] of 1.62. In assay [2], the half-inhibitory concentration (IC50) was 77.6 µM.
On to `COc1c(O)cc2oc(-c3ccc(O)cc3)cc(=O)c2c1O` [HISPIDULIN], for which the logIC50 in assay [1] turned out to be 1.14. In assay [2], inhibition was half-maximal at 46.3 µM (IC50).
On the same counts, the results for `O=c1c(O)c(-c2ccc(O)cc2)oc2cc(O)cc(O)c12` [KAEMPFEROL] are 1.23 and 58.6 µM.
Taken in the same sequence, the figures for `O=c1cc(-c2ccc(O)c(O)c2)oc2cc(O)cc(O)c12` [LUTEOLIN] were 0.984 and 33.7 µM.
Taken in the same sequence, the figures for `O=c1c(O)c(-c2cc(O)c(O)c(O)c2)oc2cc(O)cc(O)c12` [MYRICETIN] were 1.42 and 82.6 µM.
In assay [1], `O=c1c(O)c(-c2ccc(O)c(O)c2)oc2cc(O)cc(O)c12` [QUERCETIN] showed a logIC50 of 1.25. In assay [2], this compound showed an IC50 of 58.4 µM.
Taken in the same sequence, the figures for `COc1cc(O)c2c(=O)c(O)c(-c3ccc(O)cc3)oc2c1` [RHAMNOCITRIN] were 1.19 and 51.5 µM.
`C[C@@H]1O[C@@H](OC[C@H]2O[C@@H](Oc3c(-c4ccc(O)c(O)c4)oc4cc(O)cc(O)c4c3=O)[C@H](O)[C@@H](O)[C@@H]2O)[C@H](O)[C@H](O)[C@H]1O` [RUTIN]: the logIC50 in assay [1] is 1.49. The compound also showed a concentration for half-maximal inhibition (IC50) in assay [2] of 51 µM.
With `O=c1cc(-c2ccc(O)cc2)oc2cc(O)c(O)c(O)c12` [SCUTELLAREIN], the logIC50 in assay [1] stood at 1.16. Moreover, the IC50 in assay [2] is 50.6 µM.
In assay [1], `O=C1/C(=C/c2ccc(O)c(O)c2)Oc2cc(O)ccc21` [SULFURETIN] yielded a logIC50 of 0.903. The compound also showed an IC50 in assay [2] of 29.6 µM.
Taken in the same sequence, the figures for `O=c1cc(-c2ccc(O)cc2)oc2c([C@@H]3O[C@H](CO)[C@@H](O)[C@H](O)[C@H]3O)c(O)cc(O)c12` [VITEXIN] were 1.32 and 48.2 µM.
